Test results reported in ChEMBL document CHEMBL5465560, “Selectivity Literature for EUbOPEN Chemogenomic Library” (2024).
Values belong to the compound of their own block, whether it stands above or below them.

Key:
[1] = biological target: Angiopoietin-1 receptor (Homo sapiens) (UniProt Q02763); test: Selectivity interaction (KinomeScan (DiscoverX)) EUB0000655a TEK; conditions: at 10 µM
[2] = biological target: Casein kinase I isoform alpha (Homo sapiens, UniProt P48729); test: Selectivity interaction (SelectScreen profiling (Invitrogen)) EUB0000607a CSNK1A1; conditions: at 2 µM
[3] = biological target: Serine/threonine-protein kinase 26 (Homo sapiens, UniProt Q9P289); conditions: PBMC, at 1 µM
[4] = biological target: Homeodomain-interacting protein kinase 1 (Homo sapiens, UniProt Q86Z02); test: Selectivity interaction (KinomeScan (DiscoverX)) EUB0000045b HIPK1
[5] = biological target: T1, Tyrosine-protein kinase JAK3 (Homo sapiens) (UniProt P52333); test: Selectivity interaction (KinomeScan (DiscoverX)) EUB0000045b JAK3; conditions: at 1 µM
T1 sequence (whole entry): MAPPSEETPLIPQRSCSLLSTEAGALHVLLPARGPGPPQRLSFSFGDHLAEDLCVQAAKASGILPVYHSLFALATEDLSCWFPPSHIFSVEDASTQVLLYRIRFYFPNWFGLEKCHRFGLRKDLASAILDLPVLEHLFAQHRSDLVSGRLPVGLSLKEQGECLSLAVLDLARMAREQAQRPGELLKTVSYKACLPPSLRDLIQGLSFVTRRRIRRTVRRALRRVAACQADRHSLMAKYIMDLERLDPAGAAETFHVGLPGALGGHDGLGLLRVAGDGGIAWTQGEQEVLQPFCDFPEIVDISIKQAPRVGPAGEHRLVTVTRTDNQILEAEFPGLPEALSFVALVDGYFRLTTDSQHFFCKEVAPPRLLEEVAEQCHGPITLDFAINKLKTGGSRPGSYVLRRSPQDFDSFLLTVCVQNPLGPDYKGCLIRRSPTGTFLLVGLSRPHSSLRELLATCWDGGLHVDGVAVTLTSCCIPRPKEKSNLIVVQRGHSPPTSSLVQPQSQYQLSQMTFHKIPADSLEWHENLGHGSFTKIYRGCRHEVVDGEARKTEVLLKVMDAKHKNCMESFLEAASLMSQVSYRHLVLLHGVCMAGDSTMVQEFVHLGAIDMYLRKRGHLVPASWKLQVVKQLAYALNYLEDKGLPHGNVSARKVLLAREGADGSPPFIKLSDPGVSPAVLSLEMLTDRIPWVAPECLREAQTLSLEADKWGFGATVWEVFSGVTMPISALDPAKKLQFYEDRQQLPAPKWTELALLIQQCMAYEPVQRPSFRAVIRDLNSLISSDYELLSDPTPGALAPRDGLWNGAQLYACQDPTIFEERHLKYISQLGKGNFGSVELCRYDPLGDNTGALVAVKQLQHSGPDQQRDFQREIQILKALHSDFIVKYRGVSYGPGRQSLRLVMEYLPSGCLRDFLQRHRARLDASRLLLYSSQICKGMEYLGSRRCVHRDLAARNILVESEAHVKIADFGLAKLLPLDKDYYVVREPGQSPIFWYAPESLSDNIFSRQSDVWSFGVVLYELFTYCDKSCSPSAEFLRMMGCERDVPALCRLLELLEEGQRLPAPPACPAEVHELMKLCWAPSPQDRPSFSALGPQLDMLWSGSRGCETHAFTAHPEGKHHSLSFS

[6] = biological target: T2, Dual specificity mitogen-activated protein kinase kinase 3 (Homo sapiens) (UniProt P46734); test: Selectivity interaction (ActivX KiNativ screen (kinase selectivity in THP-1 cell lysates)) EUB0000639a MAP2K3; format: subcellular; conditions: lysate, at 1 µM
T2 sequence (whole entry): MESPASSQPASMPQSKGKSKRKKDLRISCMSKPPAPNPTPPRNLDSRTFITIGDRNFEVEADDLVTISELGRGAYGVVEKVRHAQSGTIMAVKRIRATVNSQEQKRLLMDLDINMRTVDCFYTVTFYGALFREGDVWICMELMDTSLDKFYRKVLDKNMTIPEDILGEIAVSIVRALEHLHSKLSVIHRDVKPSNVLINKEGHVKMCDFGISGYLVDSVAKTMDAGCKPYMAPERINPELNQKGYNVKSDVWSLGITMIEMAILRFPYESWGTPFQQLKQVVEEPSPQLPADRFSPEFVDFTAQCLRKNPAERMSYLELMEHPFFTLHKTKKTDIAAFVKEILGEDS

[7] = biological target: 5'-AMP-activated protein kinase catalytic subunit alpha-1 (Homo sapiens, UniProt Q13131); test: Selectivity interaction (ActivX KiNativ screen (kinase selectivity in THP-1 cell lysates)) EUB0000639a PRKAA1; format: subcellular; conditions: lysate, at 0.01 µM
[8] = biological target: Bromodomain-containing protein 7 (Homo sapiens) (UniProt Q9NPI1); test: Selectivity interaction (Bromodomain panel (DSF asssay)) EUB0000270b BRD7
[9] = biological target: Tyrosine-protein kinase Fyn (Homo sapiens) (UniProt P06241); test: Selectivity interaction (ProQinase) EUB0000171b FYN
[10] = biological target: T3, Serine/threonine-protein kinase Nek5 (Homo sapiens) (UniProt Q6P3R8); test: Selectivity interaction (KinomeScan (DiscoverX)) EUB0001049a NEK5; conditions: at 1 µM
T3 sequence (whole entry): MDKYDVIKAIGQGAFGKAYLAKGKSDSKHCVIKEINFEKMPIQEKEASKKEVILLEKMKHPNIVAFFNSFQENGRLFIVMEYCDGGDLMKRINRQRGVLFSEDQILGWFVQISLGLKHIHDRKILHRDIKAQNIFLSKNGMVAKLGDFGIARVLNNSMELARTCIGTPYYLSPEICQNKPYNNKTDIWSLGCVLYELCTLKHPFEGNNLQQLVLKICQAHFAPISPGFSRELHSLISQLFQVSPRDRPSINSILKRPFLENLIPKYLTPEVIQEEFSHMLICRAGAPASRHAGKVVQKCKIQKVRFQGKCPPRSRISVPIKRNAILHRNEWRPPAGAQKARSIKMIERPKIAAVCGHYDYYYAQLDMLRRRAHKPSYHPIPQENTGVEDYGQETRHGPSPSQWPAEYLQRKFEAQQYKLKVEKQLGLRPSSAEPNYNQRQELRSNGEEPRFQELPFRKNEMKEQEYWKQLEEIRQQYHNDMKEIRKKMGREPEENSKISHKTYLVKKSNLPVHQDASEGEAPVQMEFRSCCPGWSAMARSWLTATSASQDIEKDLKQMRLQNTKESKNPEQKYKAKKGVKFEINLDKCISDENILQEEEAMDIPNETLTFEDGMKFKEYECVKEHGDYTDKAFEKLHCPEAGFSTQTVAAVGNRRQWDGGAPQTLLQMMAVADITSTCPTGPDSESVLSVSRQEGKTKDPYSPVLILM

Homeodomain-interacting protein kinase 1, sequence (Q86Z02 whole entry, looked up): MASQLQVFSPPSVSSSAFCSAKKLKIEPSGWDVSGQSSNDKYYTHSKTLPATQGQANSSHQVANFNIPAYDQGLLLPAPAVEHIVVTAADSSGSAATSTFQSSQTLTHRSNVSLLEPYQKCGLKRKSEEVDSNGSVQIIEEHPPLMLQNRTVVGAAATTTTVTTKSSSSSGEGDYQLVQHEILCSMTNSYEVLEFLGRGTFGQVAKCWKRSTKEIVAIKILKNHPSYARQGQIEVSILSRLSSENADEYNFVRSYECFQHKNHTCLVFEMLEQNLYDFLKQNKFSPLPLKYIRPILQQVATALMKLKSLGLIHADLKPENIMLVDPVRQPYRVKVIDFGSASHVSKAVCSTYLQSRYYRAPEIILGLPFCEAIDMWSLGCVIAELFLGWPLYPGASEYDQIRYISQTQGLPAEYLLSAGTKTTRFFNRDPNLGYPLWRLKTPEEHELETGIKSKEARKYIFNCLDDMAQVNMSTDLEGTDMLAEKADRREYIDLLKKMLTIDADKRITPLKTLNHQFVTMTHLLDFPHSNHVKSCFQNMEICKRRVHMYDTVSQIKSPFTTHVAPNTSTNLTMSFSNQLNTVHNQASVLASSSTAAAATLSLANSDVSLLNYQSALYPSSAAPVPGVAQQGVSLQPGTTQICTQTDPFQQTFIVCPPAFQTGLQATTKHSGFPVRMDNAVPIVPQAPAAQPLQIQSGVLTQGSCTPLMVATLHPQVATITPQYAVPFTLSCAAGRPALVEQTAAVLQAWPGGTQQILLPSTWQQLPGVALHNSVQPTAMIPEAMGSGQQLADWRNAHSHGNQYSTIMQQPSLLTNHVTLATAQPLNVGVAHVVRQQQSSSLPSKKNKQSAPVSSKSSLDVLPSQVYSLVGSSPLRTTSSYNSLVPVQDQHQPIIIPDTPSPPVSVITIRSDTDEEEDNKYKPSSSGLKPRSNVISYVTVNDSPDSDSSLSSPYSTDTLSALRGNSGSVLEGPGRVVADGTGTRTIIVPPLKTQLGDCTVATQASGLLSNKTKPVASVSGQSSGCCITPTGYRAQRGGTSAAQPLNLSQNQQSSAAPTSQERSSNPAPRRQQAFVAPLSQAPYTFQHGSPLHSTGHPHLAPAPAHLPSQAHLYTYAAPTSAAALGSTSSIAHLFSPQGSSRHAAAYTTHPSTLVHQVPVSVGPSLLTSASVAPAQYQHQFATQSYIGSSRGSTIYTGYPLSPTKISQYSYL
Tyrosine-protein kinase Fyn (Homo sapiens), sequence (P06241 2-537 limits assumed): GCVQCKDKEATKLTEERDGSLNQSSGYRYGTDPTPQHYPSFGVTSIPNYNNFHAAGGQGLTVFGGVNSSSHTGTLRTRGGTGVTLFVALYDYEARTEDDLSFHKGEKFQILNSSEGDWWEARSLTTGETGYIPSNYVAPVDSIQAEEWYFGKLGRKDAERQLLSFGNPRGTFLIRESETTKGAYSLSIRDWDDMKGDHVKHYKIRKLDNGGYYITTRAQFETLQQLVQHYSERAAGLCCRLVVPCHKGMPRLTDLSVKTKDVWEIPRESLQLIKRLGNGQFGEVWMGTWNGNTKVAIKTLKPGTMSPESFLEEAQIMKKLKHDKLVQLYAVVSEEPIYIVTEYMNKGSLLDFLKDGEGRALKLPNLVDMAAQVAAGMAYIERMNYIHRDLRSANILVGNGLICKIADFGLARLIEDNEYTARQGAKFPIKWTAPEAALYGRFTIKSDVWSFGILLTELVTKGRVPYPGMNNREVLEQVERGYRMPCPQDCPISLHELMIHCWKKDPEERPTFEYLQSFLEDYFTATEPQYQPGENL
Casein kinase I isoform alpha, sequence (P48729 2-337 limits assumed): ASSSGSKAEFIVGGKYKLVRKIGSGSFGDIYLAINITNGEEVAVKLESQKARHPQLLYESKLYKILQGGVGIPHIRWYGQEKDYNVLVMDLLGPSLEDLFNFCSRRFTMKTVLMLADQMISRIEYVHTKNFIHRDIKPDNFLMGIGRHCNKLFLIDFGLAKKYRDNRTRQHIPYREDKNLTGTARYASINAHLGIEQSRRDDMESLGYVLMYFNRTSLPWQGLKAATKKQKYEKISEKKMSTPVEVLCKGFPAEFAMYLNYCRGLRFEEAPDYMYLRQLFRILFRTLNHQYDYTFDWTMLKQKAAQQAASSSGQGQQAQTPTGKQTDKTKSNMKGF
Bromodomain-containing protein 7 (Homo sapiens), sequence (Q9NPI1 whole entry): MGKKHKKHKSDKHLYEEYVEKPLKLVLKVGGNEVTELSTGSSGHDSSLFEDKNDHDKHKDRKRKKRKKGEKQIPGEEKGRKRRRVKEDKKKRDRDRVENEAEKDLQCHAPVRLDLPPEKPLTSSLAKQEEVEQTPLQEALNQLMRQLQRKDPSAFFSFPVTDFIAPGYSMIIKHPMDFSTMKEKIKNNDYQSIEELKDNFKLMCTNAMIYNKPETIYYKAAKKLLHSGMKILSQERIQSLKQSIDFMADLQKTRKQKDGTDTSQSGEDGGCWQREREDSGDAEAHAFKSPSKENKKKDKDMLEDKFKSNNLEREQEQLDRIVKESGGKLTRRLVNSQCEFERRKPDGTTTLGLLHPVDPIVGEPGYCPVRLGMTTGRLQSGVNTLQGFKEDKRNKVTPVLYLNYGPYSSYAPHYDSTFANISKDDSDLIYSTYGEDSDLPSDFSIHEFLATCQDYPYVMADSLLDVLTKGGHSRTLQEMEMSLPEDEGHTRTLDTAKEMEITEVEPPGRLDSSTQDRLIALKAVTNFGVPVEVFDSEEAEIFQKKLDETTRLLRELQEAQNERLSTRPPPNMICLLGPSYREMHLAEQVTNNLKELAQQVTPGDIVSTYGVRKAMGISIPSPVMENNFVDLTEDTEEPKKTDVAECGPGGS
Angiopoietin-1 receptor (Homo sapiens), sequence (Q02763 whole entry, canonical isoform): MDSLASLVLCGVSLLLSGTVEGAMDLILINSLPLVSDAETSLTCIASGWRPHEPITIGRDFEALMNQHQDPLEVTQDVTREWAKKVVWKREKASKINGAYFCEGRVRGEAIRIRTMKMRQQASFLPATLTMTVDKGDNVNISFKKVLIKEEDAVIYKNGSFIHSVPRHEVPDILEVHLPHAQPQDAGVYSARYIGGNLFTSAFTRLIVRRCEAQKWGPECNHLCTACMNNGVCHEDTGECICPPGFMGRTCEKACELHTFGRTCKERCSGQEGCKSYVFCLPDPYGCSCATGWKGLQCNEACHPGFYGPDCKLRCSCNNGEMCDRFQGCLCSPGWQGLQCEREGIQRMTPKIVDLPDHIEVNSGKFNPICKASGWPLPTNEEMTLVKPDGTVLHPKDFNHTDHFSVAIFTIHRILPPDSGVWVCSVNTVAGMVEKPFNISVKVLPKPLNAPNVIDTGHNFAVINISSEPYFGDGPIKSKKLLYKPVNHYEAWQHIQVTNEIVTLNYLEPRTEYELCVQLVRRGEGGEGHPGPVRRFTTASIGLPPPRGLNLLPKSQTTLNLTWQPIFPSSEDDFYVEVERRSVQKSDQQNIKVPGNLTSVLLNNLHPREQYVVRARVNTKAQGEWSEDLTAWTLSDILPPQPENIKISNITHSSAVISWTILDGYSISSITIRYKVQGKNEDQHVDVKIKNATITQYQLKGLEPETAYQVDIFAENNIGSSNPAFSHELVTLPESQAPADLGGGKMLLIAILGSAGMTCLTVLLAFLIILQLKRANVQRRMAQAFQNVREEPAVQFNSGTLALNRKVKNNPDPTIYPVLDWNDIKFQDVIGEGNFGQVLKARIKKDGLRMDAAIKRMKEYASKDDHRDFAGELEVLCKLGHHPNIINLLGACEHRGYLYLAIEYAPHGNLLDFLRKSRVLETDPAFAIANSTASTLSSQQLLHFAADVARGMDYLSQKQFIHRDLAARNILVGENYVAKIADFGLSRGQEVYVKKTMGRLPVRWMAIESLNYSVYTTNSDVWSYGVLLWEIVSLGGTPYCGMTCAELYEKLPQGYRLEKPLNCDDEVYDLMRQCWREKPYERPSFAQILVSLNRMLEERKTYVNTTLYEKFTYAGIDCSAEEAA
5'-AMP-activated protein kinase catalytic subunit alpha-1, sequence (Q13131 whole entry, looked up): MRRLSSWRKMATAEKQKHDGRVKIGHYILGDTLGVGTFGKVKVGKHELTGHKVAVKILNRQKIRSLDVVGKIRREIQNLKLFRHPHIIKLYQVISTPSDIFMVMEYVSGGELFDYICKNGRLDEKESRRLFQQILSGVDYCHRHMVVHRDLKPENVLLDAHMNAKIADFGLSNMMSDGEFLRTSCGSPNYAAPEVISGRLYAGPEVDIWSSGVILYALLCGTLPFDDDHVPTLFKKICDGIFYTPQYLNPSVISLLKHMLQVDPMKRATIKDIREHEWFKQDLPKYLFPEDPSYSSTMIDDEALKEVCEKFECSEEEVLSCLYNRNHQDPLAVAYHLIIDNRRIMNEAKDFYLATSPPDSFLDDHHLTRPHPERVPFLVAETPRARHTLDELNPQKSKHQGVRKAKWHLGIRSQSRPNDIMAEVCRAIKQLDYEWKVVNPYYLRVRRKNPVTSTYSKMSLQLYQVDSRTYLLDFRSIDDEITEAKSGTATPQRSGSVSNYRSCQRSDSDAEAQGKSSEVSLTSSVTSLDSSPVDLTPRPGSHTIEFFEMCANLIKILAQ
Serine/threonine-protein kinase 26, sequence (Q9P289 2-416 limits assumed): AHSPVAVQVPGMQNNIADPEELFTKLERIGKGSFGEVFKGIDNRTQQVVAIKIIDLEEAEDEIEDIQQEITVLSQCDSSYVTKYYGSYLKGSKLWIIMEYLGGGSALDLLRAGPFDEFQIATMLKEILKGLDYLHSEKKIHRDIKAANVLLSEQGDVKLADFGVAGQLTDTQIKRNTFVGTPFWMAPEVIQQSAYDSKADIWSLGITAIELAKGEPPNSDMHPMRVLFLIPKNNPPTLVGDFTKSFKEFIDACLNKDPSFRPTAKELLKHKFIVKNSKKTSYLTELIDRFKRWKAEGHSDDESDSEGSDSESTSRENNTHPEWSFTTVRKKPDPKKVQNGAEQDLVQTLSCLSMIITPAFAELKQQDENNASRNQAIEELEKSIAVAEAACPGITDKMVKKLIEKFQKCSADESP

SMILES: CN(C)CCOc1ccc(-c2nc(-c3ccncc3)c(-c3ccc4c(c3)CC/C4=N\O)[nH]2)cc1
% of control [1]: 63%

SMILES: CNC(=O)Nc1ccc(-c2nc(N3CC4CCC(C3)O4)c3cnn(C4CCC5(CC4)OCCO5)c3n2)cc1
% of inhibition [2]: 2%

SMILES: N#Cc1cccc(-c2c[nH]c3ncnc(N4CCOCC4)c23)c1
% of inhibition [3]: 39%

SMILES: C=CC(=O)Nc1cc(-n2c(=O)ccc3cnc4ccc(-c5ccc(NS(C)(=O)=O)cc5)cc4c32)ccc1C
% of control ([4]; at 1 µM): 100%
% of control ([4]; at 10 µM): 56%
% of control [5]: 6.6%

% of inhibition [6]: -152%
% of inhibition [7]: 14.5%
SMILES: CC[C@@H]1[C@H](F)C(=O)N[C@@H]1COc1nccc2cc(C(N)=O)c(OC)cc12 [ZIMLOVISERTIB]

dTM [8]: -1.08 K
SMILES: Cc1cc(CN)cc(C)c1-c1ncn(C)c1-c1cncn1C

% of control ([9]; at 1 µM): 101%
% of control ([9]; at 5 µM): 100%
SMILES: C=CC(=O)Nc1cccc(C(=O)Nc2ccc(Nc3cc(-c4[nH]c(SC)nc4C)ccn3)cc2)c1

SMILES: COc1cc(Nc2nc(C)cc(-c3cnn4nc(OC)ccc34)n2)cc(C(F)(F)F)c1
% of control [10]: 96%
